Calls of active or inactive are those of the source. The rule behind the calls is not given here.
What was measured:
[1] = inhibitors of PAF-induced NFkB signaling in CF airway cells, dose response, cell-based, uHTS hits, panel, cytotoxicity readout (AID 624344); settings: CF bronchial epithelial cells, PAF-induced NFkB reporter inhibition; with PAF, mean of runs
Cytotoxicity = assay: as above; settings: CF bronchial epithelial cells, mean of runs

| SMILES | IC50 [1] | IC50 (Cytotoxicity) |
| --- | --- | --- |
| O=C(CSc1nc(C2CC2)nc2ccccc12)Nc1cccc(O)c1 | 2.58 µM | 42.8 µM |
| CN1CCC(OC(=O)c2cc3cc(Cl)cc(Cl)c3oc2=O)CC1 | 1.64 µM | 44.5 µM |
| CC(=O)Nc1ccc(NC(=O)c2nc(S(=O)(=O)Cc3cccc(C)c3)ncc2Cl)cc1 | 5.98 µM | 11.5 µM |
| O=S(=O)(Nc1nc2ccccc2nc1N1CCN(c2ccccc2F)CC1)c1ccc(Cl)cc1 | 5.66 µM | 10.5 µM |
| Cc1ccc2nc(C(F)(F)F)c(C#N)c(N)c2c1 | 3.26 µM | 9.13 µM |
| CC(C)Cc1nc2oc3c(NCC4CCCO4)ncnc3c2c2c1CCC2 (centres undefined) | 2.87 µM | 3.76 µM |
| CCN1CCN(Cc2ccc(NC(=O)c3ccc(C)c(NC(=O)c4csc(-c5ccncc5)n4)c3)cc2C(F)(F)F)CC1 | 6.08 µM | 19.9 µM |
| N#CC(C#N)c1ccnc2ccccc12 | 3.17 µM | 28.3 µM |
| COc1ccc(-c2cc(=O)oc3cc(O)ccc23)cc1 | 1.89 µM | 46.9 µM |
| COc1cc2c(c(OC)c1OC)-c1ccc(SC)c(=O)cc1C(NC(=O)C(F)(F)F)CC2 (centres undefined) | inactive | > 79 µM (inactive) |
| Cc1ccc(N=Cc2cc3c(cc2O)OC(N)=C(C#N)C3c2ccccc2)cc1 (centres undefined) | 2.07 µM | 53.6 µM (inactive) |
| CC1(Cc2ccc(Cl)cc2)C(=O)Nc2ccc(-c3cccnc3)cc21 (centres undefined) | 1.28 µM | 26.6 µM |
| CCN(CC)CCN(C(=O)CCS(=O)(=O)c1ccccc1)c1nc2c(C)cc(C)cc2s1 | 5.98 µM | 8 µM |
| CC1Sc2ccc(Cl)cc2-c2nc(N)ncc21 (centres undefined) | 6.98 µM | 75 µM (inactive) |
| Nc1ncnc(NCc2ccc(F)cc2)c1[N+](=O)[O-] | 3.33 µM | > 79 µM (inactive) |
| N#Cc1cccc(NC(=O)COC(=O)c2ccccc2C(=O)c2ccc(Cl)c([N+](=O)[O-])c2)c1 | 2.66 µM | 9.79 µM |
| CCN1CCN(Cc2ccc(NC(=O)c3ccc(C)c(NC(=O)c4ccno4)c3)cc2C(F)(F)F)CC1 | < 0.15 µM | > 79 µM (inactive) |
| O=C(c1ccc(O)c(Br)c1)c1cc(Br)ccc1O | 4.08 µM | 16.4 µM |
| O=C(Nc1cccc(-c2cnc3ccccc3n2)c1)c1cccc(NC(=O)c2ccco2)c1 | 3.68 µM | 6.82 µM |
| COc1cc(CN(C)c2ccc(S(=O)(=O)N3CCCC3)cn2)ccc1OC(F)F | 0.453 µM | > 79 µM (inactive) |
| CCCCNc1c(-c2cccc(-c3ccc(OC)cc3)c2)nc2ccc(C)cn12 | 4.98 µM | 1.72 µM |

| SMILES | IC50 [1] | IC50 (Cytotoxicity) |
| --- | --- | --- |
| ON=C1c2ccccc2-c2ccccc21 | 19.5 µM | 63 µM (inactive) |
| COc1ccc(S(=O)(=O)N2c3cc(C)ccc3OCC2C(C)(C)C)cc1 (centres undefined) | 6.36 µM | > 79 µM (inactive) |
| CCN1CCN(Cc2ccc(NC(=O)c3ccc(C)c(NC(=O)N4CCNC4=O)c3)cc2C(F)(F)F)CC1 | 1.62 µM | 29.2 µM |
| CCOC(=O)c1c(-c2ccccc2)oc2cc(Br)c(O)c(C=O)c12 | 3.05 µM | 13.3 µM |
| CCOc1ccccc1N1CCN(C(=O)c2cc(-c3cc(OC)ccc3OC)nc3ccccc23)CC1 | 4.12 µM | 12 µM |
| Clc1ccc(CSc2nnc(-c3ccncc3)o2)cc1 | 5.92 µM | > 79 µM (inactive) |
| CCCNC(=O)COC(=O)c1ccccc1C(=O)c1ccc(Cl)c([N+](=O)[O-])c1 | 1.8 µM | 7.71 µM |
| Cc1ccc2[nH]cc(C(=O)CCl)c2c1 | 2.32 µM | 4.07 µM |
| CCC1(O)CC2CN(CCc3c([nH]c4ccccc34)C(C(=O)OC)(c3cc4c(cc3OC)N(C=O)C3C(O)(C(=O)OC)C(OC(C)=O)C5(CC)C=CCN6CCC43C65)C2)C1 (centres undefined) | 3.67 µM | 63.1 µM (inactive) |
| O=C(Nc1ccc(N2CCN(C(=O)c3ccccc3F)CC2)cc1)c1cncc(Br)c1 | 2.67 µM | 54.7 µM (inactive) |
| C[C@H]1Cn2cnc(C(=O)Nc3cccc(Cl)c3)c2C(=O)N1 | 2.26 µM | 25.5 µM |
| Nc1ncnc(Sc2ccc(Cl)cc2)c1[N+](=O)[O-] | 4.13 µM | 11.6 µM |
| COCCN1Cc2cccc(C(=O)Nc3cccc(-c4nc5ccccc5[nH]4)c3)c2C1=O | 7.9 µM | 11.1 µM |
| O=C(Oc1cc2oc(=O)cc(-c3ccccc3)c2cc1Cl)C1CCCCC1 | 2.22 µM | 30.6 µM |
| Cc1ccc(CNc2ncnc3ccc(-c4ccc(CO)o4)cc23)o1 | 0.898 µM | 3.77 µM |
| COc1ccc(NC(=O)Cn2ncn3nc(-c4ccc(OC)cc4)cc3c2=O)cc1 | 6.69 µM | 5.34 µM |
| COc1cccc(-c2ccc3ncnc(NCc4cccs4)c3c2)c1 | 2.91 µM | 13.6 µM |
| OCCN1CCN(c2ncnc3ccc(Br)cc23)CC1 | 2.44 µM | 55.7 µM (inactive) |
| COc1cc2cncc(Cc3ccc(Cl)cc3)c2cc1OC | 2.87 µM | 20.9 µM |
| CCCCCOC(=O)c1[nH]c2c(c1C)C(=O)CC(c1ccco1)C2 (centres undefined) | 10.8 µM | > 79 µM (inactive) |
| O=c1cc(-c2ccccc2Cl)oc2cc(O)cc(O)c12 | 5.33 µM | 55.8 µM (inactive) |

Reference: PubChem BioAssay AID624344 (Sanford-Burnham Center for Chemical Genomics, 2012)
